Test results taken from article PMC9448861 (Frontiers in Pharmacology, 2022).
Like-named read-outs stand apart in the source and are kept apart here.

Experiments:
[1] = system: mice subjected to CRS and CRS + ZnD; assay: Sucrose preference test (SPT) in mice subjected to CRS or CRS + ZnD; assay type: in vivo, C57BL/6J mice; conditions: three doses (ketamine 10 mg/kg, Ro 10 mg/kg, Hyp 2.5 mg/kg + Lan 10 mg/kg), 24 h after the last treatment
Method: (§1) All the compounds/drugs used in the study were obtained commercially, except for hyperforin (sodium salt), which was received as a gift from Dr. Wilmar Schwabe GmbH and Co (Karlsruhe, Germany). […] The control group received only 0.9% NaCl.
(§2) One week after acclimation, the mice were subjected to either a zinc-adequate feed (ZnA, 50 mg/kg) or zinc-deficient/low-Zn feed (ZnD, 3 mg/kg). Beginning from the second week, some ZnD mice were additionally subjected to 3 weeks of CRS. At the beginning of the 5th week, the mice were subjected to their appropriate treatment schedules or behavioral tests (see schemes in the figures).
(§3) CRS was performed in accordance with the procedures of [Ding et al. (2016]) with modifications. Mice from the stress groups were restrained in well-ventilated tubes with caps and holes for breathing (in a separate room from the control groups) for 3 h/day over 3 weeks. After each restraint period, the mice were transferred to housing cages. The control mice were housed at 6 mice per cage in an enriched environment and were handled every third day.
Seven days before the tests, the control and stressed mice were singly housed. The tests were carried out as follows. Two bottles (water and 1% sucrose solution) were placed in each cage 63 h before the test. Twenty-four hours later, the bottles were switched from right to left. Fifteen hours before the tests, the animals were deprived of food, water, and sucrose. The tests lasted 2 h, and sucrose preference was calculated as a percentage of the volume of sucrose intake over the total volume of fluid intake (water and sucrose solution). The SPT was performed during the light phase.

[2] = Pharmacokinetics of ketamine and its metabolite hydroxynorketamine in mouse serum, hippocampus and frontal cortex (noncompartmental analysis, LC-MS/MS); assay type: in vivo, C57BL/6J mice; conditions: for AUC0-∞ / t0.5λz / tmax / Cmax / MRT / k el / CL/F / Vd/F: ketamine 10 mg/kg i.p.; for Kp / Cmax / MRT / k el / CL/F / Vd/F: male, C57BL/6J, mouse, 10 mg/kg; for Kp: intraperitoneal; for Cmax / MRT / k el / CL/F / Vd/F: ip; for Cmax: read-out: Cmax; for MRT: read-out: MRT (converted); for k el: read-out: λz (converted); for Vd/F: read-out: Vz/F
[3] = system: treatment-resistant depression; design: method as in Serafini et al., 2014; conditions: ref Serafini et al., 2014; cited from earlier work
[4] = system: mice subjected to CRS and CRS + ZnD; assay: Tail suspension test (TST) in mice subjected to CRS or CRS + ZnD; assay type: in vivo, C57BL/6J mice; conditions: three doses, 72 h after the last treatment
Method: as §1, §2, §3
The TST was performed as described in a previous work ([Pochwat et al., 2018]). Briefly, each mouse was suspended individually by the tail using adhesive tape (2 cm from the tail tip) affixed to a solid flat surface, and immobility times were measured for 6 min. […]

[5] = system: Zn levels in the Hp and FC; assay: Analysis of zinc (F-AAS) in the Hp and FC; assay type: in vivo, C57BL/6J mice; conditions: CRS + ZnD mice; three doses
Method: as §1
The samples were mineralized before the experiments. Briefly, three independent test portions of 0.5 g each were weighed from each sample and transferred to Teflon vessels. Then, 2 mL of 30% H2O2 and 6 mL of 65% HNO3 (V) were added, and the mixture was subjected to wet mineralization in a closed system in a Magnum II mineralizer (ERTEC). Mineralization was carried out for 75 min with three cycles of magnetron operation, where the first 30 min was at 60% power, next 15 min was at 80% power, and the remaining 30 min was at 100% power. The mineralized solution thus obtained was heated on a hot plate at 120 °C for 60 min to remove the excess reagents. The samples were then quantitatively transferred to 10 mL flasks and used to determine the zinc content via the F–AAS method (adsorption and emission technique). An atomic absorption spectrometer (iCE 3500, Thermo Scientific, UK) was used to measure the Zn content; each sample was analyzed independently thrice, and the obtained results are presented as mean value ± standard error of mean (SEM).

[6] = frontal cortex, frontal cortex, CRS + ZnD mice
[7] = frontal cortex, frontal cortex, CRS mice
[8] = frontal cortex, frontal cortex, Control mice
[9] = hippocampus, hippocampus, CRS + ZnD mice
[10] = hippocampus, hippocampus, CRS mice
[11] = hippocampus, hippocampus, Control mice

In the case of CNC1(c2ccccc2Cl)CCCCC1=O (centres unmarked) [Ketamine, ketamine], the “sucrose preference in the SPT” value ([1]; CRS + ZnD mice) is reported as “failed to restore sucrose preference”, the “sucrose preference in the SPT” value ([1]; CRS mice) is reported as “restored the sucrose preference” and the “AUC0-∞” value ([2]; frontal cortex, CRS + ZnD mice) is reported as 65.97 µg·min/g. For the same compound, the t0.5λz ([2]; frontal cortex, CRS + ZnD mice) was 32.31 min, the tmax ([2]; frontal cortex, CRS + ZnD mice) was 10 min and the “AUC0-∞” value ([2]; frontal cortex, CRS mice) was 106.58 µg·min/g. The t0.5λz ([2]; frontal cortex, CRS mice) was 34.92 min, the tmax ([2]; frontal cortex, CRS mice) was 10 min and the “AUC0-∞” value ([2]; frontal cortex, Control mice) was 97.81 µg·min/g. The t0.5λz ([2]; frontal cortex, Control mice) was 30.49 min, the “AUC0-∞” value ([2]; hippocampus, CRS + ZnD mice) was 58.49 µg·min/g and the t0.5λz ([2]; hippocampus, CRS + ZnD mice) was 42.69 min. The tmax ([2]; hippocampus, CRS + ZnD mice) was 10 min, the “AUC0-∞” value ([2]; hippocampus, CRS mice) was 96.13 µg·min/g and the t0.5λz ([2]; hippocampus, CRS mice) was 39.68 min. The tmax ([2]; hippocampus, CRS mice) was 10 min, the “AUC0-∞” value ([2]; hippocampus, Control mice) was 80.90 µg·min/g and the t0.5λz ([2]; hippocampus, Control mice) was 37.36 min. It also gave a Kp ([2]; brain structure (not specified) / serum, CRS + ZnD animals, read-out: tissue-to-serum AUC ratio for the parent drug) of 1.3, a Kp ([2]; brain structure (not specified) / serum, CRS + ZnD animals, read-out: tissue-to-serum Cmax ratio for the parent drug) of 1 and a Cmax [2, 6] of 2650 ng/g. The MRT [2, 6] was 28.8 min, the k el [2, 6] was 0.000367 s⁻¹ and the Cmax [2, 7] was 3030 ng/g. The MRT [2, 7] was 28.4 min, the k el [2, 7] was 0.000333 s⁻¹ and the Cmax [2, 8] was 3460 ng/g. The MRT [2, 8] was 30.1 min, the k el [2, 8] was 0.000383 s⁻¹ and the Kp ([2]; hippocampus and frontal cortex / serum, control and stress (CRS) groups, Hp and FC, read-out: tissue-to-serum Cmax and AUC ratios for the parent drug) was 2.45 to 2.84. For the same compound, the Cmax [2, 9] was 2310 ng/g, the MRT [2, 9] was 31.3 min and the k el [2, 9] was 0.000267 s⁻¹. For the same compound, the Cmax [2, 10] was 3180 ng/g, the MRT [2, 10] was 28.5 min and the k el [2, 10] was 0.000283 s⁻¹. The Cmax [2, 11] was 2990 ng/g, the MRT [2, 11] was 30.4 min and the k el [2, 11] was 0.000317 s⁻¹. The CL/F ([2]; serum, serum, CRS + ZnD mice) was 220 mL/min/kg, the Cmax ([2]; serum, serum, CRS + ZnD mice) was 2150 ng/mL and the MRT ([2]; serum, serum, CRS + ZnD mice) was 22 min. It also gave a Vd/F ([2]; serum, serum, CRS + ZnD mice) of 11.6 L/kg, a k el ([2]; serum, serum, CRS + ZnD mice) of 0.000317 s⁻¹ and a Cmax ([2]; serum, serum, CRS mice) of 1120 ng/mL. It also gave an MRT ([2]; serum, serum, CRS mice) of 29.8 min, a Vd/F ([2]; serum, serum, CRS mice) of 14.6 L/kg and a k el ([2]; serum, serum, CRS mice) of 0.000317 s⁻¹. For the same compound, the Cmax ([2]; serum, serum, Control mice) was 1130 ng/mL, the MRT ([2]; serum, serum, Control mice) was 34.2 min and the Vd/F ([2]; serum, serum, Control mice) was 16 L/kg. It also gave a k el ([2]; serum, serum, Control mice) of 0.000317 s⁻¹, a CL/F ([2]; serum, CRS mice) of 270 mL/min/kg and a CL/F ([2]; serum, Control mice) of 300 mL/min/kg. It also gave a t0.5λz ([2]; serum, CRS + ZnD mice) of 35.93 min, a tmax ([2]; serum, CRS + ZnD mice) of 10 min and a t0.5λz ([2]; serum, CRS mice) of 37.06 min. For the same compound, the tmax ([2]; serum, CRS mice) was 10 min, the t0.5λz ([2]; serum, Control mice) was 36.70 min and the estimated efficacy [3] was 50–70%. For the same compound, the “immobility time in the TST” value [4] was “ineffective” and the “Zn levels in the Hp and FC” value [5] was “reduced the Zn levels”.
